The text below walks through data of patent US20200062696A1, “COMPOSITIONS AND METHODS FOR INHIBITING RETICULON 4” (THE REGENTS OF THE UNIVERSITY OF CALIFORNIA, priority 2017, published 2020).

Structures are written as SMILES.

Assay [1] has as its system SW620 colorectal cancer cells. Kind of assay: Cell proliferation of SW620 cells (Hoescht staining). The class given is cell-based. Conditions: Homo sapiens, SW-620, cysteine-reactive fragment 50 μM, 48 h, vs DMSO, average of n = 3/group, read-out: SW620 proliferation Ave. The method, then:
(§1) Cell Culture. SW620 cells were purchased from ATCC. SW620 cells were grown in L-15 media with 10% fetal bovine serum (FBS) in ambient CO2. U2OS cells were grown in DMEM media supplemented with 10% FBS at 37° C. with 5% CO2.
(§2) Survival and Proliferation Assays. Cells were plated the evening before the experiment, and allowed to adhere overnight. For serum-free cell survival assays, cells were plated in media not containing FBS. For cell proliferation assays, cells were plated in regular media. For the chemical genetics screen, cells were treated with either DMSO or the cysteine-reactive fragment for 48 h and cell viability was assessed by Hoescht stain using our previously described methods

For assay [2], the system named is SW620 colorectal cancer cells. Briefly: Serum-free cell survival of SW620 cells (Hoescht staining). The class given is cell-based. Conditions: Homo sapiens, SW-620, cysteine-reactive fragment 50 μM, 48 h, vs DMSO, average of n = 3/group, read-out: SW620 survival Ave. As to the method:
as §1, §2

As to `C=CC(=O)NCc1ccccc1` [DKM 2-31, N-benzylacrylamide], the activity at 50 µM in assay [1] was 116%. Moreover, in assay [2], the viability at 50 µM turned out to be 89%.

For `C=CC(=O)NC(C)CCc1ccccc1` (stereo not shown) [DKM 2-32, N-(4-phenylbutan-2-yl)acrylamide], the activity at 50 µM in assay [1] is 114%. Also, in assay [2], the viability at 50 µM came out at 91%.

In the case of `C=CC(=O)NCc1ccc(OC)cc1` [DKM 2-33, N-(4-methoxybenzyl)acrylamide], the activity at 50 µM in assay [1] is 115%. In addition, the viability at 50 µM in assay [2] turned out to be 92%.

In the case of `C=CC(=O)NCc1ccc(F)cc1` [DKM 2-34, N-(4-fluorobenzyl)acrylamide], the activity at 50 µM in assay [1] was 105%. Also, the viability at 50 µM in assay [2] is 78%.

On to `C=CC(=O)NCc1ccc(-c2ccccc2)cc1` [DKM 2-37, N-([1,1′-biphenyl]-4-ylmethyl)acrylamide], for which the activity at 50 µM in assay [1] is 73%. Also, the viability at 50 µM in assay [2] was found to be 57%.

As to `C=CC(=O)N1CCN(C(=O)OCC)CC1` [DKM 2-39, Ethyl 4-acryloylpiperazine-1-carboxylate], the activity at 50 µM in assay [1] amounted to 110%. Besides, the viability at 50 µM in assay [2] was 93%.

Consider `C=CC(=O)Nc1cc(F)ccc1F` [DKM 2-40, N-(2,5-difluorophenyl)acrylamide], for which, in assay [1], the activity at 50 µM came out at 98%. Moreover, the viability at 50 µM in assay [2] came out at 36%.

Regarding `C=CC(=O)NCCc1ccccc1` [DKM 2-42, N-phenethylacrylamide], the activity at 50 µM in assay [1] came to 137%. Further, the viability at 50 µM in assay [2] was found to be 104%.

As for `C=CC(=O)NCc1ccc(Br)cc1` [DKM 2-43, N-(4-bromobenzyl)acrylamide], the activity at 50 µM in assay [1] came out at 128%. Further, the viability at 50 µM in assay [2] was 84%.

In the case of `C=CC(=O)NCc1cc(C)cc(C)c1` [DKM 2-47, N-(3,5-dimethylbenzyl)acrylamide], the activity at 50 µM in assay [1] was determined as 112%. For the same compound, the viability at 50 µM in assay [2] was 78%.

In the case of `C=CC(=O)N1CCCC1` [DKM 2-48, 1-(pyrrolidin-1-yl)prop-2-en-1-one], in assay [1], the activity at 50 µM was found to be 85%. Moreover, in assay [2], the viability at 50 µM came to 90%.

As for `C=CC(=O)N1CCOCC1` [DKM 2-49, 1-morpholinoprop-2-en-1-one], in assay [1], the activity at 50 µM was 109%. Also, the viability at 50 µM in assay [2] amounted to 80%.

Consider `C=CC(=O)NCCCc1ccccc1` [DKM 2-50, N-(3-phenylpropyl)acrylamide], for which the activity at 50 µM in assay [1] was found to be 130%. Moreover, the viability at 50 µM in assay [2] came to 89%.

As to `CCOC(=O)N1CCN(C(=O)CCl)CC1` [DKM 2-52, Ethyl 4-(2-chloroacetyl)piperazine-1-carboxylate], the activity at 50 µM in assay [1] turned out to be 53%. Also, the viability at 50 µM in assay [2] was 92%.

Consider `C=CC(=O)NCCOc1ccccc1OC` [DKM 2-58, N-(2-(2-methoxyphenoxy)ethyl)acrylamide], for which the activity at 50 µM in assay [1] was determined as 116%. Besides, in assay [2], the viability at 50 µM was determined as 98%.

Turning to `C=CC(=O)NCc1ccccc1-c1ccccc1` [DKM 2-59, N-([1,1′-biphenyl]-2-ylmethyl)acrylamide], the activity at 50 µM in assay [1] was 74%. The viability at 50 µM in assay [2] came to 66%.

On to `C=CC(=O)NCc1ccccc1Cl` [DKM 2-60, N-(2-chlorobenzyl)acrylamide], for which, in assay [1], the activity at 50 µM was found to be 100%. In addition, the viability at 50 µM in assay [2] is 108%.

Consider `C=CC(=O)NCc1ccccc1[N+](=O)[O-]` [DKM 2-62, N-(2-nitrobenzyl)acrylamide], for which the activity at 50 µM in assay [1] is 95%. Also, the viability at 50 µM in assay [2] stood at 115%.

As to `O=C(CCl)NCc1ccccc1` [DKM 2-67, N-benzyl-2-chloroacetamide], the activity at 50 µM in assay [1] turned out to be 73%. The viability at 50 µM in assay [2] worked out at 87%.

Take `O=C(CCl)N1CCCC1` [DKM 2-71, 2-Chloro-1-(pyrrolidin-1-yl)ethan-1-one]: the activity at 50 µM in assay [1] turned out to be 41%. In addition, in assay [2], the viability at 50 µM was 81%.

As to `CCCCCCCCCCNC(=O)CCl` [DKM 2-72, 2-Chloro-N-decylacetamide], the activity at 50 µM in assay [1] stood at 100%. For the same compound, the viability at 50 µM in assay [2] came out at 96%.

For the compound `CC(CCc1ccccc1)NC(=O)CCl` (stereo not shown) [DKM 2-76, 2-Chloro-N-(4-phenylbutan-2-yl)acetamide], the activity at 50 µM in assay [1] was determined as 50%. Besides, the viability at 50 µM in assay [2] was found to be 44%.

With `O=C(CCl)NCc1ccc(F)cc1` [DKM 2-80, 2-chloro-N-(4-fluorobenzyl)acetamide], the activity at 50 µM in assay [1] stood at 48%. Besides, the viability at 50 µM in assay [2] is 47%.

With `COc1ccc(CNC(=O)CCl)cc1` [DKM 2-83, 2-chloro-N-(4-methoxybenzyl)acetamide], in assay [1], the activity at 50 µM was 48%. Besides, the viability at 50 µM in assay [2] was determined as 66%.

`C=CC(=O)Nc1cccc2c1CCC2` [DKM 2-84, N-(2,3-dihydro-1H-inden-4-yl)acrylamide]: the activity at 50 µM in assay [1] came out at 84%. The viability at 50 µM in assay [2] was 74%.

For the compound `C=CC(=O)Nc1ccc2c(c1)OCO2` [DKM 2-86, N-(benzo[d][1,3]dioxol-5-yl)acrylamide], the activity at 50 µM in assay [1] is 102%. For the same compound, in assay [2], the viability at 50 µM was determined as 109%.

In the case of `O=C(CCl)Nc1cccc2c1CCC2` [DKM 2-91, 2-chloro-N-(2,3-dihydro-1H-inden-4-yl)acetamide], the activity at 50 µM in assay [1] was found to be 59%. Further, in assay [2], the viability at 50 µM is 38%.

For the compound `COc1ccc(CNC(=O)CCl)cc1OC` [DKM 2-93, 2-chloro-N-(3,4-dimethoxybenzyl)acetamide], the activity at 50 µM in assay [1] stood at 57%. For the same compound, the viability at 50 µM in assay [2] was found to be 74%.

With `O=C(CCl)NCc1ccccc1Cl` [DKM 2-94, 2-Chloro-N-(2-chlorobenzyl)acetamide], in assay [1], the activity at 50 µM came out at 32%. In addition, the viability at 50 µM in assay [2] was 43%.

`C=CC(=O)N(C)Cc1ccccc1` [DKM 2-95, N-benzyl-N-methylacrylamide]: in assay [1], the activity at 50 µM came out at 85%. In addition, the viability at 50 µM in assay [2] is 52%.

Turning to `C=CC(=O)N1CCC(c2ccccc2)CC1` [DKM 2-97, 1-(4-phenylpiperidin-1-yl)prop-2-en-1-one], the activity at 50 µM in assay [1] turned out to be 96%. Besides, in assay [2], the viability at 50 µM was 106%.

`C=CC(=O)Nc1ccc(-c2ccc(C#N)cc2)cc1` [DKM 2-98, N-(4′-cyano-[1,1′-biphenyl]-4-yl)acrylamide]: in assay [1], the activity at 50 µM is 42%. In assay [2], the viability at 50 µM came out at 52%.

With `C=CC(=O)NCCN1CCOCC1` [DKM 2-100, N-(2-morpholinoethyl)acrylamide], the activity at 50 µM in assay [1] was 100%. In addition, in assay [2], the viability at 50 µM came out at 138%.

In the case of `C=CC(=O)N1CCc2ccccc21` [DKM 2-101, 1-(indolin-1-yl)prop-2-en-1-one], the activity at 50 µM in assay [1] was 96%. The viability at 50 µM in assay [2] was 39%.

Consider `C=CC(=O)NCCCC` [DKM 2-102, N-butylacrylamide], for which, in assay [1], the activity at 50 µM was determined as 133%. Besides, the viability at 50 µM in assay [2] turned out to be 124%.

In the case of `C=CC(=O)NCCCOC` [DKM 2-103, N-(3-methoxypropyl)acrylamide], the activity at 50 µM in assay [1] turned out to be 112%. For the same compound, the viability at 50 µM in assay [2] was determined as 135%.

As to `C=CC(=O)NC1CCCCC1` [DKM 2-106, N-cyclohexylacrylamide], the activity at 50 µM in assay [1] came to 100%. For the same compound, the viability at 50 µM in assay [2] came to 144%.

`C=CC(=O)Nc1ccc(Cl)cc1` [DKM 2-107, N-(4-chlorophenyl)acrylamide]: the activity at 50 µM in assay [1] is 99%. In addition, the viability at 50 µM in assay [2] was 86%.

With `C=CC(=O)NC1CCCC1` [DKM 2-108, N-cyclopentylacrylamide], the activity at 50 µM in assay [1] was 95%. Besides, in assay [2], the viability at 50 µM came to 61%.

As to `C=CC(=O)N1CCC(OC)CC1` [DKM 2-109, 1-(4-methoxypiperidin-1-yl)prop-2-en-1-one], the activity at 50 µM in assay [1] is 96%. For the same compound, the viability at 50 µM in assay [2] is 140%.

Turning to `C=CC(=O)NCc1ccc(OC)c(OC)c1` [DKM 2-110, N-(3,4-dimethoxybenzyl)acrylamide], in assay [1], the activity at 50 µM came to 95%. Further, the viability at 50 µM in assay [2] was found to be 112%.

For the compound `C=CC(=O)N1CCN(C(=O)OC(C)(C)C)CC1` [DKM 2-111, tert-butyl 4-acryloylpiperazine-1-carboxylate], in assay [1], the activity at 50 µM was 106%. Further, in assay [2], the viability at 50 µM was determined as 133%.

Consider `C=CC(=O)NCCOc1ccccc1` [DKM 2-113, N-(2-phenoxyethyl)acrylamide], for which the activity at 50 µM in assay [1] turned out to be 147%. Also, the viability at 50 µM in assay [2] came out at 75%.

Take `C=CC(=O)N(C1CCCCC1)C1CCCCC1` [DKM 2-114, N,N-dicyclohexylacrylamide]: the activity at 50 µM in assay [1] came to 111%. Further, in assay [2], the viability at 50 µM came out at 76%.

Regarding `C=CC(=O)NCc1ccc(C(F)(F)F)cc1` [DKM 2-116, N-(4-(trifluoromethyl)benzyl)acrylamide], the activity at 50 µM in assay [1] was 90%. The viability at 50 µM in assay [2] was 123%.

As for `C=CC(=O)N1CCC(C(=O)OCC)CC1` [DKM 2-120, Ethyl 1-acryloylpiperidine-4-carboxylate], in assay [1], the activity at 50 µM was determined as 96%. The viability at 50 µM in assay [2] was found to be 102%.

Regarding `C=CC(=O)NC(c1ccccc1)c1ccccc1` [DKM 3-4, N-benzhydrylacrylamide], the activity at 50 µM in assay [1] was 120%. Further, the viability at 50 µM in assay [2] turned out to be 122%.

In the case of `C=CC(=O)N1CCN(c2ccccc2)CC1` [DKM 3-5, 1-(4-phenylpiperazin-1-yl)prop-2-en-1-one], in assay [1], the activity at 50 µM was determined as 82%. For the same compound, the viability at 50 µM in assay [2] came out at 59%.

On to `C=CC(=O)Nc1ccc(C(C)=O)cc1` [DKM 3-7, N-(4-acetylphenyl)acrylamide], for which the activity at 50 µM in assay [1] was 100%. Also, the viability at 50 µM in assay [2] is 51%.

Consider `C=CC(=O)N1CCC(C)CC1` [DKM 3-8, 1-(4-methylpiperidin-1-yl)prop-2-en-1-one], for which the activity at 50 µM in assay [1] was 105%. Moreover, in assay [2], the viability at 50 µM was determined as 152%.
